ChEMBL document CHEMBL4382199, “Application of Virtual Screening to the Identification of New LpxC Inhibitor Chemotypes, Oxazolidinone and Isoxazoline” (J Med Chem, 2018)
Converted amounts (≈) assume the structure as drawn. The source made the active and inactive calls. The calls are words filed in the database; no cut-off is given here.

Assays:
Pseudomonas aeruginosa [1] = experiment: Antimicrobial activity against Pseudomonas aeruginosa ATCC 27853 after 20 hrs by CLSI protocol-based microdilution assay; format: functional; details: ATCC 27853, 20 h
[2] = biological target: T1, UDP-3-O-acyl-N-acetylglucosamine deacetylase (Pseudomonas aeruginosa (strain ATCC 15692 / PAO1 / 1C / PRS 101 / LMG12228), UniProt P47205); experiment: Binding affinity to Pseudomonas aeruginosa PAO1 NB52019 LpxC after 60 to 420 secs by SPR method
T1 sequence (P47205 whole entry): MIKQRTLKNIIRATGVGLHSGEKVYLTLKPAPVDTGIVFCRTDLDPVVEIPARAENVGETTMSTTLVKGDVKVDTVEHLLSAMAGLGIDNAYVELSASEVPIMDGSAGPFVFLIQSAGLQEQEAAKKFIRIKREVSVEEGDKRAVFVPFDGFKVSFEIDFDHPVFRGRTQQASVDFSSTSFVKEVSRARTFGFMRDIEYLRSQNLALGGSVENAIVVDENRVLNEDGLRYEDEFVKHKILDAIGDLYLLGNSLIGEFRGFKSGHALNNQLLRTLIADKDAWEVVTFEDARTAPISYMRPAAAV

Klebsiella pneumoniae [3] = experiment: Antimicrobial activity against Klebsiella pneumoniae ATCC 43816 after 20 hrs by CLSI protocol-based microdilution assay; format: functional; details: ATCC 43816, 20 h
Escherichia coli = experiment: Antimicrobial activity against Escherichia coli ATCC 25922 after 20 hrs by CLSI protocol-based microdilution assay; format: functional; details: ATCC 25922, 20 h
[4] = Lipophilicity, log D of the compound at pH 7.4; format: physicochemical; details: buffer
Klebsiella pneumoniae [5] = experiment: Inhibition of LpxC in Klebsiella pneumoniae ATCC 43816 assessed as antibacterial activity after 20 hrs in presence of rifampicin by CLSI protocol-based microdilution assay
Klebsiella pneumoniae [6] = experiment: Inhibition of LpxC in Klebsiella pneumoniae ATCC 43816 assessed as potentiation factor by measuring ratio of MIC of compound alone to MIC of compound in presence of rifampicin after 20 hrs by CLSI protocol-based microdilution assay
Klebsiella pneumoniae [7] = experiment: Inhibition of LpxC in Klebsiella pneumoniae ATCC 43816 assessed as antibacterial activity after 20 hrs in presence of vancomycin by CLSI protocol-based microdilution assay
Klebsiella pneumoniae [8] = experiment: Inhibition of LpxC in Klebsiella pneumoniae ATCC 43816 assessed as potentiation factor by measuring ratio of MIC of compound alone to MIC of compound in presence of vancomycin after 20 hrs by CLSI protocol-based microdilution assay
Klebsiella pneumoniae [9] = experiment: Antibacterial activity against Klebsiella pneumoniae infected in lung infection mouse model assessed as log reduction in bacterial load in lungs at 200 mg/kg, sc dosed every 6 hrs measured after 48 hrs post first treatment; format: functional, organism-based
Klebsiella pneumoniae [10] = experiment: Antibacterial activity against Klebsiella pneumoniae infected in mouse model of lung infection assessed as reduction in bacterial load in lung at 200 mg/kg, sc dosed every 6 hrs and measured after 48 hrs post first treatment; format: functional, organism-based
[11] = Half life in mouse at 60 mg/kg, iv; format: ADME, organism-based; details: in vivo
Klebsiella pneumoniae [12] = experiment: Antibacterial activity against Klebsiella pneumoniae infected in mouse model of lung infection assessed as reduction in bacterial load in lung at 20 mg/kg, sc dosed every 6 hrs and measured after 48 hrs post first treatment; format: functional
[13] = Volume of distribution at steady state in dog at 10 mg/kg, iv; format: ADME, organism-based, Canis lupus familiaris; details: in vivo, read-out: Vdss
[14] = Protein binding in dog plasma; format: ADME, cell-free, Canis lupus familiaris; details: read-out: PPB (converted)
[15] = Solubility of the compound at pH 7.4; format: physicochemical; details: buffer
[16] = Half life in dog at 10 mg/kg, iv; format: ADME, organism-based, Canis lupus familiaris; details: in vivo
[17] = Protein binding in human plasma; format: ADME, cell-free; details: read-out: PPB (converted)
[18] = Clearance in mouse at 60 mg/kg, iv; format: ADME, organism-based; details: in vivo
[19] = Solubility of the compound at pH 9; format: physicochemical; details: buffer
[20] = Protein binding in mouse plasma; format: ADME, cell-free; details: read-out: PPB (converted)
[21] = Volume of distribution at steady state in rat at 5 mg/kg, iv; format: ADME, organism-based; details: in vivo, read-out: Vdss
Klebsiella pneumoniae [22] = experiment: Antibacterial activity against Klebsiella pneumoniae infected in mouse model of lung infection assessed as reduction in bacterial load in lung at 20 mg/kg, sc dosed every 6 hrs co-treated with 200 mg/kg vancomycin and measured after 48 hrs post first treatment (reference value: 4.5 log10CFU/g); format: functional
[23] = Clearance in rat at 5 mg/kg, iv; format: ADME, organism-based; details: in vivo
[24] = Volume of distribution at steady state in mouse at 60 mg/kg, iv; format: ADME, organism-based; details: in vivo, read-out: Vdss
[25] = Clearance in dog at 10 mg/kg, iv; format: ADME, organism-based, Canis lupus familiaris; details: in vivo
[26] = Half life in rat at 5 mg/kg, iv; format: ADME, organism-based; details: in vivo
[27] = Protein binding in rat plasma; format: ADME, cell-free; details: read-out: PPB (converted)
Pseudomonas aeruginosa [28] = experiment: Antimicrobial activity against Pseudomonas aeruginosa infected in mouse model of neutropenic thigh infection assessed reduction in bacterial levels in thigh at 105 mg/kg/day, sc administered 2 hrs post infection every 6 hrs for 24 hrs; format: functional, organism-based
Pseudomonas aeruginosa [29] = experiment: Antimicrobial activity against Pseudomonas aeruginosa infected in mouse model of neutropenic thigh infection assessed reduction in bacterial levels in thigh at 160 mg/kg/day, sc administered 2 hrs post infection every 6 hrs for 24 hrs; format: functional, organism-based

SMILES	MIC (Pseudomonas aeruginosa [1]) [mg/L]	Kd [2] [nM]	MIC (Klebsiella pneumoniae [3]) [mg/L]	MIC (Escherichia coli) [mg/L]	logD [4]	MIC (Klebsiella pneumoniae [5]) [mg/L]	MIC (Klebsiella pneumoniae [7]) [mg/L]	other results
C[C@@](C[C@H]1CN(c2ccc(Br)cc2)C(=O)O1)(C(=O)NO)S(C)(=O)=O	0.5 (≈ 1.19 µM)	0.21	> 64	> 64	1			
CC#Cc1ccc(C2=NO[C@@H](C[C@](C)(C(=O)NO)S(C)(=O)=O)C2)cc1	0.5 (≈ 1.37 µM)	0.44	8 (≈ 22 µM)	1 (≈ 2.74 µM)	1.4	0.25	2	fold change (FC) (Klebsiella pneumoniae [6]): 32; fold change (FC) (Klebsiella pneumoniae [8]): 4
CCCc1ccc(N2C[C@H](C[C@](C)(C(=O)NO)S(C)(=O)=O)OC2=O)cc1	0.5 (≈ 1.3 µM)	0.17	32 (≈ 83.2 µM)	4 (≈ 10.4 µM)	1.6	1	8	fold change (FC) (Klebsiella pneumoniae [6]): 32; fold change (FC) (Klebsiella pneumoniae [8]): 4
CN[C@H](CC(C)C)C(=O)N[C@H]1C(=O)N[C@@H](CC(N)=O)C(=O)N[C@H]2C(=O)N[C@H]3C(=O)N[C@H](C(=O)N[C@H](C(=O)O)c4cc(O)cc(O)c4-c4cc3ccc4O)[C@H](O)c3ccc(c(Cl)c3)Oc3cc2cc(c3O[C@@H]2O[C@H](CO)[C@@H](O)[C@H](O)[C@H]2O[C@H]2C[C@](C)(N)[C@H](O)[C@H](C)O2)Oc2ccc(cc2Cl)[C@H]1O [VANCOMYCIN]			> 128					Activity (Klebsiella pneumoniae [9]): inactive; Activity (Klebsiella pneumoniae [10]): inactive
C[C@@](C[C@H]1CC(c2ccc(Br)cc2)=NO1)(C(=O)NO)S(C)(=O)=O	4 (≈ 9.87 µM)	2.6	> 64	32 (≈ 79 µM)	1.2			
C/C=C/c1ccc(C2=NO[C@@H](C[C@](C)(C(=O)NO)S(C)(=O)=O)C2)cc1	1 (≈ 2.73 µM)	0.3	16 (≈ 43.7 µM)	2 (≈ 5.46 µM)	2			
C[C@@H](O)[C@H](NC(=O)c1ccc(C#Cc2ccc(CN3CCOCC3)cc2)cc1)C(=O)NO	2 (≈ 4.57 µM)		0.5 (≈ 1.14 µM)	0.125 (≈ 0.286 µM)				
CC(C)(O)[C@H]1C[C@H](C#Cc2ccc(N3C[C@H](C[C@](C)(C(=O)NO)S(C)(=O)=O)OC3=O)cc2)C1	1 (≈ 2.09 µM)	0.2	1 (≈ 2.09 µM)	0.5 (≈ 1.04 µM)	1.6	0.5	1	fold change (FC) (Klebsiella pneumoniae [6]): 2; fold change (FC) (Klebsiella pneumoniae [8]): 1
C[C@@](C[C@H]1CC(c2ccc(C#CC3CC3)cc2)=NO1)(C(=O)NO)S(C)(=O)=O	1 (≈ 2.56 µM)	0.17	0.5 (≈ 1.28 µM)	0.125 (≈ 0.32 µM)	2.2	0.03	0.125	fold change (FC) (Klebsiella pneumoniae [6]): 16; fold change (FC) (Klebsiella pneumoniae [8]): 4
C[C@@](C[C@H]1CN(c2ccc(C3CC3)cc2)C(=O)O1)(C(=O)NO)S(C)(=O)=O	2 (≈ 5.23 µM)	0.12	> 64	32 (≈ 83.7 µM)	1.5			
C[C@@](C[C@H]1CN(c2ccc(C#CC3CC3)cc2)C(=O)O1)(C(=O)NO)S(C)(=O)=O	0.5 (≈ 1.23 µM)		1 (≈ 2.46 µM)	0.125 (≈ 0.308 µM)	1.9	0.06	0.25	half-life [11]: 330 min; Activity (Klebsiella pneumoniae [12]): 4.5 log10CFU/g; Vd [13]: 0.8 L/kg; fraction unbound [14]: 0.14; solubility [15]: 0.126 mg/mL (≈ 310 µM); half-life [16]: 42 min; fraction unbound [17]: 0.14; clearance [18]: 2.94 L/h/kg; solubility [19]: > 20 mg/mL; fraction unbound [20]: 0.13; Vd [21]: 1 L/kg; Activity (Klebsiella pneumoniae [22]): 2.5 log10CFU/g; clearance [23]: 1.44 L/h/kg; Vd [24]: 1.6 L/kg; clearance [25]: 1.56 L/h/kg; half-life [26]: 54 min; fraction unbound [27]: 0.11; Activity (Pseudomonas aeruginosa [28]): Active; Activity (Pseudomonas aeruginosa [29]): Active
C[C@@](C[C@H]1CN(c2ccc(-c3ccccc3)cn2)C(=O)O1)(C(=O)NO)S(C)(=O)=O	2 (≈ 4.77 µM)	0.12	32 (≈ 76.3 µM)	2 (≈ 4.77 µM)	1.8			
C[C@@](C[C@H]1CN(c2ccc(-c3ccccc3)cc2)C(=O)O1)(C(=O)NO)S(C)(=O)=O	1 (≈ 2.39 µM)	0.026	4 (≈ 9.56 µM)	0.25 (≈ 0.597 µM)	2.3			
C/C=C/c1ccc(N2C[C@H](C[C@](C)(C(=O)NO)S(C)(=O)=O)OC2=O)cc1	1 (≈ 2.61 µM)	0.1	32 (≈ 83.7 µM)	4 (≈ 10.5 µM)	1.4			
CCCc1ccc(C2=NO[C@@H](C[C@](C)(C(=O)NO)S(C)(=O)=O)C2)cc1	1 (≈ 2.71 µM)	0.2	16 (≈ 43.4 µM)	4 (≈ 10.9 µM)	1.7			
CO[C@H]1/C=C/O[C@@]2(C)Oc3c(C)c(O)c4c(O)c(c(/C=N/N5CCN(C)CC5)c(O)c4c3C2=O)NC(=O)/C(C)=C\C=C\[C@H](C)[C@H](O)[C@@H](C)[C@@H](O)[C@@H](C)[C@H](OC(C)=O)[C@@H]1C [RIFAMPIN]			32 (≈ 38.9 µM)					
CC#Cc1ccc(N2C[C@H](C[C@](C)(C(=O)NO)S(C)(=O)=O)OC2=O)cc1	0.5 (≈ 1.31 µM)	0.063	16 (≈ 42.1 µM)	2 (≈ 5.26 µM)	1.4	0.25	4	fold change (FC) (Klebsiella pneumoniae [6]): 64; fold change (FC) (Klebsiella pneumoniae [8]): 4
C[C@@H](O)Cc1ccc(-c2ccc(N3C[C@H](C[C@](C)(C(=O)NO)S(C)(=O)=O)OC3=O)cc2)cc1	2 (≈ 4.2 µM)	0.12	1 (≈ 2.1 µM)	0.25 (≈ 0.525 µM)	1.2			
